Measurements: ChEMBL document CHEMBL5550101, “Inhibition of cancer cells by Quinoline-Based compounds: A review with mechanistic insights” (Bioorg Med Chem, 2024)
pIC50: −log10 of the molar value. Blank lines part the entries; values can stand above or below the compound they belong to.

How the values were obtained:
[1] = molecular target: Platelet-derived growth factor receptor beta (Homo sapiens, UniProt P09619); experiment: Inhibition of PDGFRbeta (unknown origin)
[2] = tested on: MCF7; experiment: Antiproliferative activity against human MCF7 cells assessed as reduction in cell growth incubated for 48 hrs by SRB assay; type: functional, cell-based; conditions: MCF7, 48 h
[3] = tested on: MCF7; experiment: Cytotoxicity against human MCF7 cells assessed as reduction in cell growth measured for 48 hrs by SRB assay; type: functional, cell-based; conditions: MCF7, 48 h
[4] = molecular target: Epidermal growth factor receptor (Homo sapiens, UniProt P00533); experiment: Inhibition of EGFR (unknown origin)
[5] = tested on: SR; experiment: Cytotoxicity against human SR cells assessed as cell growth inhibition by measuring lethal concentration by SRB assay; type: functional; conditions: read-out: LC50 (the source's name)
[6] = tested on: A549; experiment: Cytotoxicity against human A549 cells assessed as cell growth inhibition by measuring lethal concentration by SRB assay; type: functional; conditions: read-out: LC50 (the source's name)
[7] = tested on: HCT-116; experiment: Cytotoxicity against human HCT-116 cells assessed as cell growth inhibition by measuring lethal concentration by SRB assay; type: functional
[8] = tested on: MCF7; experiment: Cytotoxicity against human MCF7 cells assessed as cell growth inhibition by measuring lethal concentration by SRB assay; type: functional
[9] = tested on: PC-3; experiment: Cytotoxicity against human PC-3 cells assessed as cell growth inhibition by measuring lethal concentration by SRB assay; type: functional; conditions: read-out: LC50 (the source's name)
[10] = tested on: A498; experiment: Cytotoxicity against human A498 cells assessed as cell growth inhibition by measuring lethal concentration by SRB assay; type: functional
[11] = tested on: OVCAR-3; experiment: Cytotoxicity against human OVCAR-3 cells assessed as cell growth inhibition by measuring lethal concentration by SRB assay; type: functional
[12] = tested on: M14; experiment: Cytotoxicity against human M14 cells assessed as cell growth inhibition by measuring lethal concentration by SRB assay; type: functional
[13] = tested on: A549; experiment: Antiproliferative activity against human A549 cells assessed as reduction in cell growth incubated for 48 hrs by MTT assay; type: functional, cell-based; conditions: A549, 48 h
[14] = tested on: MCF7; experiment: Cytotoxicity against human MCF7 cells assessed as reduction in cell growth incubated for 72 hrs by SRB assay; type: functional, cell-based; conditions: MCF7, 72 h
[15] = molecular target: Hepatocyte growth factor receptor (Homo sapiens, UniProt P08581); experiment: Inhibition of c-Met (unknown origin) by mobility shift assay
Sequence of Hepatocyte growth factor receptor (P08581 whole entry): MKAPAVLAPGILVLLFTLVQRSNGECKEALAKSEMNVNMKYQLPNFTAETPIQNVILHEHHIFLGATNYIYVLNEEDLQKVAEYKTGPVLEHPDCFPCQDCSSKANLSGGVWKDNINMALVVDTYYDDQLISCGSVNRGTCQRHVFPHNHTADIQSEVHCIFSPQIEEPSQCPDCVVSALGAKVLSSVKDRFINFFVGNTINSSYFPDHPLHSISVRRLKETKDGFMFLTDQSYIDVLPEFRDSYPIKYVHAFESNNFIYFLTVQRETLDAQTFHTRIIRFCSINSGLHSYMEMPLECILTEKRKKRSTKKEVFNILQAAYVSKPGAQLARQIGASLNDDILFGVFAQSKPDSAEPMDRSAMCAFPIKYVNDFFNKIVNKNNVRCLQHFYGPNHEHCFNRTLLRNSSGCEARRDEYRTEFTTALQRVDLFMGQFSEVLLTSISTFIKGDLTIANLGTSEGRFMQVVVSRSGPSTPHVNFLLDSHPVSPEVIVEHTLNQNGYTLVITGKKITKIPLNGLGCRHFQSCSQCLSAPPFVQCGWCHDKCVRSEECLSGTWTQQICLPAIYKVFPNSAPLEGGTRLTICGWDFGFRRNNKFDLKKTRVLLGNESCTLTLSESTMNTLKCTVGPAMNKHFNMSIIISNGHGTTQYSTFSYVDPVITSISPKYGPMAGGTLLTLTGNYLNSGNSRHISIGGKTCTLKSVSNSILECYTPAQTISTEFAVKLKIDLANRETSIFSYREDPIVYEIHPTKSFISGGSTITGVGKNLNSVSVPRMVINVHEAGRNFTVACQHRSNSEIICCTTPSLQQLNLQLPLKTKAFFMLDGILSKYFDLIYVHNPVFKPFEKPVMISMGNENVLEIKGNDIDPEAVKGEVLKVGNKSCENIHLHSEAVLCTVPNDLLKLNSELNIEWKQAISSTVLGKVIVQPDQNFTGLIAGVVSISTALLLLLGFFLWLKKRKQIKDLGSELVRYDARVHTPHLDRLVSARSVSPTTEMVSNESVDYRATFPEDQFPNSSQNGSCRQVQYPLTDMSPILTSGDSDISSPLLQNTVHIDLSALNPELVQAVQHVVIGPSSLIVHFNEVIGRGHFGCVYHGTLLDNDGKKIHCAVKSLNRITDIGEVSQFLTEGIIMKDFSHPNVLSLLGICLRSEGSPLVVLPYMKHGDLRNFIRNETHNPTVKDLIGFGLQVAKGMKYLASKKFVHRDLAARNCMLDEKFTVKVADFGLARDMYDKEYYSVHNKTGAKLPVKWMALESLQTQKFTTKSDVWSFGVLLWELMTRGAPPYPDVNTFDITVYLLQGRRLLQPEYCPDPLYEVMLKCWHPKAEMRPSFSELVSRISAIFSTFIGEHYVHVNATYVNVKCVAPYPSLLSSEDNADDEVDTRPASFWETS

Sequence of Epidermal growth factor receptor (P00533 whole entry): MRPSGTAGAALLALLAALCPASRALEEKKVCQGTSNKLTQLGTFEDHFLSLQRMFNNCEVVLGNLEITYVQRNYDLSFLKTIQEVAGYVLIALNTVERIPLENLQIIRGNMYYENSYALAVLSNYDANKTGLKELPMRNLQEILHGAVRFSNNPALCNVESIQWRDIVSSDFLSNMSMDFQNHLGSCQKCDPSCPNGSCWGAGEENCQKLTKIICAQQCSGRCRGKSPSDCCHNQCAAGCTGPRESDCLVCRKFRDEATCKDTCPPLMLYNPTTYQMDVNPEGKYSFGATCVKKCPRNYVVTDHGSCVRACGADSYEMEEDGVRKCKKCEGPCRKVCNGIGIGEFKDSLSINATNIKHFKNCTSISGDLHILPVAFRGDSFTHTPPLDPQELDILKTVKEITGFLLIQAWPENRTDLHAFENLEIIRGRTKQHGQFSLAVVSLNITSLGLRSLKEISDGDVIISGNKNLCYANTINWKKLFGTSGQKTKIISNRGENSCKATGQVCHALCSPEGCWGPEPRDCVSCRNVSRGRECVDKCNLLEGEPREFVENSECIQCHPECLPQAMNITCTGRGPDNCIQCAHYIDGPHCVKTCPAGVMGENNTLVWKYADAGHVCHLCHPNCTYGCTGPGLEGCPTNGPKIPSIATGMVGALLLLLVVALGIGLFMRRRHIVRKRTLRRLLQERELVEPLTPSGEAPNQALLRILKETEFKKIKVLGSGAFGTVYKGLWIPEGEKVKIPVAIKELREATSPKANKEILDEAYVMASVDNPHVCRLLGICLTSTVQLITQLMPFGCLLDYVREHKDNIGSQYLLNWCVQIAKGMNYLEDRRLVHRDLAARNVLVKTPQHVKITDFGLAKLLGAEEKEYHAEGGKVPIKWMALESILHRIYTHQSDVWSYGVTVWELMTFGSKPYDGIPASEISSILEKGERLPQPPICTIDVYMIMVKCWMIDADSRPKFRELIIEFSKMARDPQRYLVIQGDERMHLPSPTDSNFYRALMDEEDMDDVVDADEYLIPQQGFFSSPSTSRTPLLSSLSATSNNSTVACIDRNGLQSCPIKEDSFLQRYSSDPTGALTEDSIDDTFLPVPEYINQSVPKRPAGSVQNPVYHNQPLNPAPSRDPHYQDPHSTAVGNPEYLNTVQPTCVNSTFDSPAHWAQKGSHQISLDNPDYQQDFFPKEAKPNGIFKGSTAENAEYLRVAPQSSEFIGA
Sequence of Platelet-derived growth factor receptor beta (P09619 whole entry): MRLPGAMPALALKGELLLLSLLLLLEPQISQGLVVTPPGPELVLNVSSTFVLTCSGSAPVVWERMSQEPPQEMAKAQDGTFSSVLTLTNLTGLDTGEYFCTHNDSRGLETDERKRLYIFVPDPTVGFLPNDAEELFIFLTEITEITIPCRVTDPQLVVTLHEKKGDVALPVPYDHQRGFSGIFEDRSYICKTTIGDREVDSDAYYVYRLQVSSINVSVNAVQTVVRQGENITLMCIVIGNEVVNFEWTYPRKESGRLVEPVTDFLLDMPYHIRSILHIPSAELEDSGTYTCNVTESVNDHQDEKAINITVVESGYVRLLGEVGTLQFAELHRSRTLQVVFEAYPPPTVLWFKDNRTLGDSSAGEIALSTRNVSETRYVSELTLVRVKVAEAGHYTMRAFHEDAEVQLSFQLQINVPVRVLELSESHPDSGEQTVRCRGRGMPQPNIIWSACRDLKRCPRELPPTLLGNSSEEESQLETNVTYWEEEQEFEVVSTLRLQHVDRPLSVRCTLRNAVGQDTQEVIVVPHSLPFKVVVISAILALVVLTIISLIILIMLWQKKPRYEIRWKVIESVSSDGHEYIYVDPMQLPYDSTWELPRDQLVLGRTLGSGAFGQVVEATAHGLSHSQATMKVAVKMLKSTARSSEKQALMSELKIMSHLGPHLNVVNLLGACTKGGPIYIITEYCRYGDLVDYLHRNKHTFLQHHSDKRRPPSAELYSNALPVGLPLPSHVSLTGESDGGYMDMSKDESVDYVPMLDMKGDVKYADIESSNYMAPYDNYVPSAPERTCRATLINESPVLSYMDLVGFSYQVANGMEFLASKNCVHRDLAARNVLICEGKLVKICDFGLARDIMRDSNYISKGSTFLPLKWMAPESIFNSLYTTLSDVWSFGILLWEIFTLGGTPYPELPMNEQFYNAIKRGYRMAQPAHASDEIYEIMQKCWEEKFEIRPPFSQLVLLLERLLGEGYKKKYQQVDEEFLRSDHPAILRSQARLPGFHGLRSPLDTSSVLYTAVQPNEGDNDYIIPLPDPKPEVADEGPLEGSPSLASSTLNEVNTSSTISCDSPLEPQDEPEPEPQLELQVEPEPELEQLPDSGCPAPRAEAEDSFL

SMILES: COc1ccc2c(c1)CCc1c-2[nH]c(=O)c(C#N)c1-c1ccc(OC)c(OC)c1
pIC50 [3]: 4.86
pIC50 [4]: 6.89

SMILES: CCCCOc1ccc(/C=N/Nc2cc(C)nc3ccc(Br)cc23)cc1
CC50 [5]: > 100 µM
CC50 [6]: 6.61 µM
LC50 [7]: 6.17 µM
LC50 [8]: 7.37 µM
CC50 [9]: 6.49 µM
LC50 [10]: 5.47 µM
LC50 [11]: 7.18 µM
LC50 [12]: 5.88 µM

SMILES: CCCOc1ccc(/C=N/Nc2ccnc3ccc(Br)cc23)cc1
pIC50 [1]: 5.74

SMILES: COc1ccc2c(c1)CCc1c-2[nH]c(=O)c(C#N)c1-c1ccc(OC)cc1OC
pIC50 [3]: 5.14
pIC50 [4]: 6.89

SMILES: COc1ccc2c(c1)CCc1c-2nc(N)c(C#N)c1-c1ccc(OC)cc1OC
pIC50 [3]: 4.76
pIC50 [4]: 6.89

SMILES: COc1ccc2nc(Cl)cc(C3CC(c4ccc(C)cc4)=NN3c3nc(C)c(NNc4ccccc4)s3)c2c1 (stereo not drawn)
pIC50 [2]: 6.39

SMILES: CCOc1ccc(/C=N/Nc2ccnc3ccc(Br)cc23)cc1
pIC50 [1]: 5.73

SMILES: CCCCCCOc1ccc(/C=N/Nc2cc(C)nc3ccc(Br)cc23)cc1
CC50 [5]: > 100 µM
CC50 [6]: 6.61 µM
LC50 [7]: 4.67 µM
LC50 [8]: 6.84 µM
CC50 [9]: 5.84 µM
LC50 [10]: 6.03 µM
LC50 [11]: 6.85 µM
LC50 [12]: 6.67 µM

SMILES: CCOC(=O)c1sc(N2N=C(c3ccc(C)cc3)CC2c2cc(Cl)nc3ccc(OC)cc23)nc1C (stereo not drawn)
pIC50 [2]: 6.49

SMILES: CCCCCOc1ccc(/C=N/Nc2cc(C)nc3ccc(Cl)cc23)cc1
CC50 [5]: 4.2 µM
CC50 [6]: 6.52 µM
LC50 [7]: 5.02 µM
LC50 [8]: 7.04 µM
CC50 [9]: 5.98 µM
LC50 [10]: 5.13 µM
LC50 [11]: 6.51 µM
LC50 [12]: 5.91 µM

SMILES: N#Cc1c(-c2ccc3ncc(C(N)=O)c(Nc4cccc(Br)c4)c3c2)csc1N
pIC50 [14]: 4.30

SMILES: CCCOc1ccc(/C=N/Nc2cc(C)nc3ccc(Cl)cc23)cc1
CC50 [5]: 38.6 µM
CC50 [6]: 6.49 µM
LC50 [7]: 6.48 µM
LC50 [8]: 6.9 µM
CC50 [9]: 6.39 µM
LC50 [10]: 5.79 µM
LC50 [11]: 6.44 µM
LC50 [12]: 6.17 µM

SMILES: CC(=O)c1ccc2ncc(C(N)=O)c(Nc3ccc(OCc4ccccc4)cc3)c2c1
pIC50 [14]: 4.97

SMILES: CCN(C(=O)c1cc(C(C)C)c(O)cc1O)c1cnc2ccccc2c1
pIC50 [15]: 6.77

SMILES: COc1ccc(-c2c(C#N)c(N)nc3c2CCc2cc(OC)ccc2-3)cc1
pIC50 [3]: 4.92

SMILES: CCCCOc1ccc(/C=N/Nc2cc(C)nc3ccc(Cl)cc23)cc1
CC50 [5]: > 100 µM
CC50 [6]: 6.35 µM
LC50 [7]: > 100 µM
LC50 [8]: 6.87 µM
CC50 [9]: 6.55 µM
LC50 [10]: 5.67 µM
LC50 [11]: 7.04 µM
LC50 [12]: 8.07 µM

SMILES: CCc1[nH]nc(NC(=O)Cc2ccc(Oc3ccnc4cc(OC)ccc34)cc2OC)c1C
pIC50 [15]: 8.52

SMILES: COc1ccc2c(c1)CCc1c-2nc(N)c(C#N)c1-c1ccc(OC)c(OC)c1
pIC50 [3]: 4.84
pIC50 [4]: 6.89

SMILES: Cc1ccc(Nc2c(C(N)=O)cnc3ccc(C(=O)/C=C/c4ccc(-c5ccc(Cl)cc5)o4)cc23)cc1
pIC50 [14]: 5.47

SMILES: CCOc1ccc(/C=N/Nc2cc(C)nc3ccc(Cl)cc23)cc1
CC50 [5]: 15.5 µM
CC50 [6]: 6.94 µM
LC50 [8]: 6.6 µM
CC50 [9]: 6.54 µM
LC50 [10]: 7.01 µM
LC50 [11]: 6.36 µM
LC50 [12]: 5.55 µM

SMILES: CCCCOc1ccc(/C=N/Nc2ccnc3ccc(Br)cc23)cc1
pIC50 [1]: 5.66

SMILES: COc1ccc2nc(Cl)cc(C3CC(c4ccc(C)cc4)=NN3c3nc(-c4ccc(Cl)cc4)cs3)c2c1 (stereo not drawn)
pIC50 [2]: 5.93

SMILES: CCCCCCOc1ccc(/C=N/Nc2cc(C)nc3ccc(Cl)cc23)cc1
CC50 [5]: 8.11 µM
CC50 [6]: 7.22 µM
LC50 [8]: 6.97 µM
CC50 [9]: 5.83 µM
LC50 [10]: 6.55 µM
LC50 [11]: 6.83 µM
LC50 [12]: 6.26 µM

SMILES: CCCCCOc1ccc(/C=N/Nc2cc(C)nc3ccc(Br)cc23)cc1
CC50 [5]: 21.3 µM
CC50 [6]: 7.15 µM
LC50 [7]: 6.35 µM
LC50 [8]: 7.93 µM
CC50 [9]: 5.88 µM
LC50 [10]: 6.02 µM
LC50 [11]: 5.92 µM
LC50 [12]: 6.64 µM

More lines, main results first:

pIC50 [1]: 5.30
SMILES: COc1ccc(-c2cc3cc(OC)ccc3nc2Nc2ccc(NC(=O)CN3CCN(C)CC3)cc2)cc1

pIC50 [2]: 6.68
SMILES: COc1ccc2nc(Cl)cc(C3CC(c4ccc(C)cc4)=NN3c3nc(-c4ccccc4)cs3)c2c1 (stereo not drawn)

pIC50 [4]: 6.89
SMILES: COc1ccc(-c2c3c([nH]c(=O)c2C#N)-c2ccc(OC)cc2CC3)cc1
pIC50 [3]: 4.74

pIC50 [1]: 5.30
SMILES: COc1ccc(-c2cc3ccc(OC)cc3nc2Nc2ccc(NC(=O)CN3CCN(C)CC3)cc2)cc1

pIC50 [1]: 5.75
SMILES: CCCCOc1ccc(/C=N/Nc2ccnc3ccc(Cl)cc23)cc1

pIC50 [13]: 7.22
SMILES: O=C(Cc1ccc([N+](=O)[O-])cc1)Nc1ccc2c(c1)CCCN2C(=O)c1ccc(Cl)cc1

pIC50 [2]: 6.44
SMILES: COc1ccc2nc(Cl)cc(C3CC(c4ccc(C)cc4)=NN3c3nc(C)c(C(=O)Nc4ccccc4)s3)c2c1 (stereo not drawn)

pIC50 [13]: 6.01
SMILES: O=C(Cc1ccccc1)Nc1ccc2c(c1)CCCN2C(=O)c1ccc(Cl)cc1

pIC50 [1]: 5.95
SMILES: CN1c2ccc(F)cc2SC1C(=O)Nc1cccc2c1N(Cc1ccc(OC3CCNCC3)cc1)CCC2 (stereo not drawn)

pIC50 [15]: 8.40
SMILES: COc1ccc2c(Oc3ccc(CC(=O)Nc4cn(C)nc4C)c(OC)c3)ccnc2c1

pIC50 [13]: 6.66
SMILES: Nc1ccc(CC(=O)Nc2ccc3c(c2)CCCN3C(=O)c2ccc(Cl)cc2)cc1

pIC50 [13]: 6.19
SMILES: O=C(Cc1ccc(Br)cc1)Nc1ccc2c(c1)CCCN2C(=O)c1ccc(Cl)cc1

pIC50 [13]: 5.49
SMILES: O=C(Nc1ccc2c(c1)CCCN2C(=O)c1ccc(Cl)cc1)c1cc(C(F)(F)F)cc(C(F)(F)F)c1

pIC50 [2]: 6.68
SMILES: COc1ccc2nc(O)c(C3CC(c4ccc(C)cc4)=NN3C(C)=O)cc2c1 (stereo not drawn)

pIC50 [13]: 6.82
SMILES: CCOC(=O)C(=O)Nc1ccc2c(c1)CCCN2C(=O)c1ccc(Cl)cc1
